In US20250223366A1, “MONOCLONAL ANTIBODIES AND BISPECIFIC ANTIBODY AGAINST C-MET” (BIOTHEUS INC., priority 2022, published 2025):

Key:
[1] = tested on: H1975-HGF human lung cancer cells; assay: Experimental Model 5: H1975-HGF tumor-bearing model, combination with Osimertinib; type: in vivo, CB-17 SCID mice; conditions: antibody Day 16 and Day 18: 3 mg/kg, Osimertinib Days 16 to 22: 3 mg/kg/day, last measured 28 days after inoculation
Excerpt: In this experiment, the in vivo efficacy of the bispecific antibody of the present application in combination with an small molecule EGFR inhibitor (e.g., Osimertinib) was detected. Using the lentiviral transfection method, the cDNA encoding human HGF (hepatocyte growth factor) (the sequence was from UniProtKB P14210) was constructed on the pLVX-neu vector by General Biol, and the plasmid was transfected into H1975 cells to construct a cell line ([…]) with stable expression of HGF. In this experiment, CB-17 SCID mice were subcutaneously inoculated with H1975-HGF human lung cancer cells to establish a tumor-bearing model and determine the anti-tumor effect of the anti-EGFRxc-Met bispecific antibody. The model construction process was the same as that of Experimental Model 2. The mice were divided into groups according to the grouping and dosing scheme in Table 10 and the corresponding doses of antibodies were injected.
The tumor volume and body weight of mice were measured 2 to 3 times a week. The body weight and tumor volume of mice were measured for the last time 28 days after the tumor cell inoculation, and then the mice were euthanized.

A375/H1975/HCC827 cells = assay: ADCC induction, CD16a-NFAT-Luc Jurkat reporter gene cells; type: cell-based, human; conditions: A375, H1975, HCC827 target cells, CD16a-NFAT-Luc Jurkat effector cells, 6 h, FIG. 9
Excerpt: A375 cells were human malignant melanoma cells and purchased from Addexbio, which were capable of expressing EGFR and c-Met receptors. H1975 cells were human lung adenocarcinoma cells and purchased from Addexbio, which were capable of highly expressing EGFR and c-Met receptors. HCC827 cells were human non-small cell lung cancer cells and purchased from the Cell Bank of the Chinese Academy of Sciences, which were capable of highly expressing EGFR and c-Met receptors. […]

[2] = tested on: H292 human lung cancer tumor cells; assay: Experimental Model 4: H292 tumor-bearing model, comparison with Rybrevant; type: in vivo, CB-17 SCID mice; conditions: H292, single dose Day 14: 10 mg/kg; last measured 27 days after inoculation
Excerpt: In this experiment, CB-17 SCID mice were subcutaneously inoculated with H292 human lung cancer tumor cells to establish a tumor-bearing model, and the anti-EGFRxc-Met bispecific antibody was compared with the commercially available EGFRxc-Met bispecific antibody Rybrevant (purchased from Johnson & Johnson, batch number: LHS3G02) (this antibody had been published at various oncology conferences and was also known as JNJ-6372) in terms of anti-tumor effect. The mouse model establishment process was the same as that of Experimental Model 1. The groups were divided according to the grouping and dosing scheme in Table 9 and the corresponding doses of antibodies were injected.
The tumor volume and body weight of the mice were measured 2 to 3 times a week. The weight and tumor volume of the mice were measured for the last time 27 days after the inoculation of tumor cells, and the mice were euthanized.

HepG2 cells = assay: Blocking HGF-induced migration of HepG2 cells; type: cell-based, human; conditions: HGF in lower chamber, 3 days, FIG. 6
Excerpt: HepG2 cells were human liver cancer cells and purchased from ATCC, which were capable of expressing EGFR and c-Met receptors. When HGF was placed in the lower chamber culture medium, it would induce HepG2 cells in the upper chamber to migrate to the lower chamber through the filter membrane. The specific experimental method was as follows: HepG2 cells were expanded to an appropriate density, the cells were digested and detached from the cell culture flask, resuspended to 1×10^6 cells/ml, and added to the upper chamber of the 24-well cell migration plate (purchased from Corning) at 100 μL per well for later use. The bispecific antibody was diluted to 200 nM with MEM, added to the upper chamber of the 24-well cell migration plate at 100 μL per well, and incubated at 25° C. for 60 min. h.HGF (purchased from R&D) was diluted to 50 ng/mL with MEM, added to the lower chamber of the cell migration plate at 500 μL/well, and cultured for 3 days at 37° C. and 5% carbon dioxide. The non-migrated cells on the upper chamber membrane were gently wiped with cotton swabs, the cells that migrated to the lower chamber membrane were lysed with Cell titer glo (purchased from Promega), and the chemiluminescent signal was collected with an microplate plate reader.

[3] = molecular target: T1, EGFR which expressed on H292 cells (Homo sapiens, UniProt P00533); assay: Blocking EGF-EGFR interaction on H292 cells (flow cytometry, Biotin-h.EGF); type: cell-based; conditions: negative controls, FIG. 3
T1 construct: H292 cells, which were human non-small cell lung cancer cells purchased from Procell, were capable of expressing EGFR and c-Met receptors; host or cells: H292 cells
Experimental: H292 cells, which were human non-small cell lung cancer cells purchased from Procell, were capable of expressing EGFR and c-Met receptors. H292 cells were expanded to a suitable density, digested and detached from the cell culture flask, resuspended to 1×10^6 cells/ml, added to a 96-well flow plate, 100 μL per well, and centrifuged for later use. The antibody to be tested was subjected to 3-fold dilution with PBS, starting from 200 nM, and the diluted sample was added to the 96-well flow plate with cells, 100 μL/well, and incubated at 25° C. for 60 min. Biotin-h.EGF was diluted to 100 nM with PBS, added to the 96-well flow plate with cells, 100 μL/well, and incubated at 25° C. for 60 min. then washed twice with PBS. Streptavidin-FITC (purchased from Jackson) was diluted 100 times with PBS and added to the plate, 100 µL/well, incubated at 4° C. for 30 min, and washed twice with PBS. 100 μL/well of PBS was added to resuspend the cells, then the cells were detected on a CytoFlex (Beckman) flow cytometer, and the corresponding MFI was calculated.

C=CC(=O)Nc1cc(Nc2nccc(-c3cn(C)c4ccccc34)n2)c(OC)cc1N(C)CCN(C)C [Osimertinib]
TGI [1]: 38.9%

Amivantamab analog: control anti-EGFRxcMet bispecific antibody with anti-cMet arm of WO2011/110642A2, obtained in normal host cells [reference compound]
ADCC effect (A375/H1975/HCC827 cells): induced ADCC effects

Rybrevant: commercially available EGFRxc-Met bispecific antibody, purchased from Johnson & Johnson, batch number LHS3G02 [reference compound]
TGI [1]: 44.1%
TGI [2]: 67.9%

anti-EGFR single-arm antibody: anti-EGFR single-arm antibody prepared based on the control antibody Amivantamab; heavy chain SEQ ID NO: 42, light chain SEQ ID NO: 4 [reference compound]
blocking of HGF-induced migration of HepG2 cells (HepG2 cells): could not block

anti-MET single-arm antibody: anti-c-Met single-arm molecule constructed based on the control molecule Amivantamab; heavy chain SEQ ID NO: 43, light chain SEQ ID NO: 8 [reference compound]
blocking interaction between EGF and EGFR [3]: could not block
